Measured values from PubChem BioAssay (NCI).
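96-well plates; 48 h exposure; 5 concentrations. Endpoints by linear interpolation between flanking doses. Not reached: highest tested concentration assigned. GI50: concentration for 50% inhibition of growth. TGI: total growth inhibition.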

Key:
Assay in all cases: growth of human tumour cells (NCI), 48 h
OVCAR-8 ovarian = system: OVCAR-8 ovarian
HT29 colon = system: HT29 colon
EKVX NSCLC = system: EKVX NSCLC
U251 CNS = system: U251 CNS
TK-10 renal = system: TK-10 renal
SK-MEL-2 melanoma = system: SK-MEL-2 melanoma
SN12C renal = system: SN12C renal
SNB-75 CNS = system: SNB-75 CNS
NCI/ADR-RES ovarian = system: NCI/ADR-RES ovarian
SF-268 CNS = system: SF-268 CNS
MDA-MB-231 breast = system: MDA-MB-231 breast
KM12 colon = system: KM12 colon
MOLT-4 leukemia = system: MOLT-4 leukemia
CCRF-CEM leukemia = system: CCRF-CEM leukemia
SK-OV-3 ovarian = system: SK-OV-3 ovarian
OVCAR-5 ovarian = system: OVCAR-5 ovarian
HCT-116 colon = system: HCT-116 colon
SK-MEL-5 melanoma = system: SK-MEL-5 melanoma
UACC-257 melanoma = system: UACC-257 melanoma
HOP-62 NSCLC = system: HOP-62 NSCLC
NCI-H23 lung = system: NCI-H23 lung
BT-549 breast = system: BT-549 breast
MDA-MB-468 breast = system: MDA-MB-468 breast
HCT-15 colon = system: HCT-15 colon
T-47D breast = system: T-47D breast
SF-295 CNS = system: SF-295 CNS
HOP-92 NSCLC = system: HOP-92 NSCLC
MCF7 breast = system: MCF7 breast
DU-145 prostate = system: DU-145 prostate
HS 578T breast = system: HS 578T breast
ACHN renal = system: ACHN renal
MDA-MB-435 = system: MDA-MB-435
A498 renal = system: A498 renal
OVCAR-3 ovarian = system: OVCAR-3 ovarian
SW-620 colon = system: SW-620 colon
MALME-3M melanoma = system: MALME-3M melanoma
UACC-62 melanoma = system: UACC-62 melanoma
K-562 leukemia = system: K-562 leukemia
RPMI-8226 leukemia = system: RPMI-8226 leukemia
HCC-2998 colon = system: HCC-2998 colon
COLO 205 colon = system: COLO 205 colon
IGROV1 ovarian = system: IGROV1 ovarian
RXF 393 renal = system: RXF 393 renal
SK-MEL-28 melanoma = system: SK-MEL-28 melanoma
A549 NSCLC = system: A549 NSCLC
786-0 renal = system: 786-0 renal
SF-539 CNS = system: SF-539 CNS
CAKI-1 renal = system: CAKI-1 renal
HL-60(TB) leukemia = system: HL-60(TB) leukemia
OVCAR-4 ovarian = system: OVCAR-4 ovarian
PC-3 prostate = system: PC-3 prostate
SNB-19 CNS = system: SNB-19 CNS
LOX IMVI melanoma = system: LOX IMVI melanoma
NCI-H460 lung = system: NCI-H460 lung
UO-31 renal = system: UO-31 renal
SR leukemia = system: SR leukemia
M14 melanoma = system: M14 melanoma
NCI-H522 lung = system: NCI-H522 lung
NCI-H226 lung = system: NCI-H226 lung

## COc1ccc(CCC2c3c(cc4c(c3OC)OCO4)CCN2C)cc1 (stereo not drawn)
OVCAR-8 ovarian
  GI50: 13.1 µM
  TGI: 30.5 µM
HT29 colon
  GI50: 3.63 µM
  TGI: 20.9 µM
EKVX NSCLC
  GI50: 16.1 µM
  TGI: 67.7 µM
U251 CNS
  GI50: 13.6 µM
  TGI: 46.5 µM
TK-10 renal
  GI50: 10.6 µM
  TGI: 31.8 µM
SK-MEL-2 melanoma
  GI50: 14.6 µM
  TGI: 36.7 µM
SN12C renal
  GI50: 7.05 µM
  TGI: 37.4 µM
SNB-75 CNS
  GI50: 13.5 µM
  TGI: 70.5 µM
NCI/ADR-RES ovarian
  GI50: 9.23 µM
  TGI: 26.2 µM
SF-268 CNS
  GI50: 14.3 µM
  TGI: > 100 µM
MDA-MB-231 breast
  GI50: 9.13 µM
  TGI: 22.6 µM
KM12 colon
  GI50: 12.6 µM
  TGI: 33.2 µM
MOLT-4 leukemia
  GI50: 6.39 µM
  TGI: 32.8 µM
CCRF-CEM leukemia
  GI50: 11.2 µM
  TGI: 46.7 µM
SK-OV-3 ovarian
  GI50: 17.3 µM
  TGI: 43.3 µM
OVCAR-5 ovarian
  GI50: 5.98 µM
  TGI: 28.8 µM
HCT-116 colon
  GI50: 3.35 µM
  TGI: 13.8 µM
SK-MEL-5 melanoma
  GI50: 10.4 µM
  TGI: 22.2 µM
UACC-257 melanoma
  GI50: 13.4 µM
  TGI: 28.2 µM
HOP-62 NSCLC
  GI50: 7.41 µM
  TGI: 46.3 µM
NCI-H23 lung
  GI50: 6.56 µM
  TGI: 31.7 µM
BT-549 breast
  GI50: 7.68 µM
  TGI: 20.1 µM
MDA-MB-468 breast
  GI50: 6.81 µM
  TGI: 21.6 µM
HCT-15 colon
  GI50: 9.8 µM
  TGI: 34.8 µM
T-47D breast
  GI50: 6.92 µM
  TGI: 29.6 µM
SF-295 CNS
  GI50: 3.5 µM
  TGI: 17.2 µM
HOP-92 NSCLC
  GI50: 5.16 µM
  TGI: 23.4 µM
MCF7 breast
  GI50: 10.4 µM
  TGI: 24.3 µM
DU-145 prostate
  GI50: 20.1 µM
  TGI: 86.2 µM
HS 578T breast
  GI50: 10.4 µM
  TGI: 41.8 µM
ACHN renal
  GI50: 8.95 µM
  TGI: 45 µM
MDA-MB-435
  GI50: 3.78 µM
  TGI: 17.1 µM
A498 renal
  GI50: 18 µM
  TGI: 64.6 µM
OVCAR-3 ovarian
  GI50: 10.9 µM
  TGI: 29.3 µM
SW-620 colon
  GI50: 3.93 µM
  TGI: 16.8 µM
MALME-3M melanoma
  GI50: 14.2 µM
  TGI: 27.5 µM
UACC-62 melanoma
  GI50: 10.6 µM
  TGI: 23.2 µM
K-562 leukemia
  GI50: 3.94 µM
  TGI: 24.6 µM
RPMI-8226 leukemia
  GI50: 4.05 µM
  TGI: 27.4 µM
HCC-2998 colon
  GI50: 10.7 µM
  TGI: 25.7 µM
COLO 205 colon
  GI50: 5.99 µM
  TGI: 21 µM
IGROV1 ovarian
  GI50: 5.72 µM
  TGI: 22.1 µM
RXF 393 renal
  GI50: 6.99 µM
  TGI: 30.6 µM
SK-MEL-28 melanoma
  GI50: 10.2 µM
  TGI: 22.5 µM
A549 NSCLC
  GI50: 17 µM
  TGI: > 100 µM
786-0 renal
  GI50: 9.15 µM
  TGI: 24 µM
SF-539 CNS
  GI50: 4.91 µM
  TGI: 16.8 µM
CAKI-1 renal
  GI50: 9.84 µM
  TGI: 38.8 µM
HL-60(TB) leukemia
  GI50: 3.01 µM
  TGI: 18 µM
OVCAR-4 ovarian
  GI50: 17.2 µM
  TGI: 99.2 µM
PC-3 prostate
  GI50: 9.52 µM
  TGI: 35.1 µM
SNB-19 CNS
  GI50: 15 µM
  TGI: > 100 µM
LOX IMVI melanoma
  GI50: 3.14 µM
  TGI: 12.6 µM
NCI-H460 lung
  GI50: 4.76 µM
  TGI: 19.1 µM
UO-31 renal
  GI50: 8.73 µM
  TGI: 54.1 µM
SR leukemia
  GI50: 3.94 µM
  TGI: 24 µM
M14 melanoma
  GI50: 7.17 µM
  TGI: 23.2 µM
NCI-H522 lung
  GI50: 12.1 µM
  TGI: 27.1 µM
NCI-H226 lung
  GI50: 7.04 µM
  TGI: 25.6 µM
